Calls of active or inactive are those of the source. No rule for the calls is given here.
Molecular target: C-X-C chemokine receptor type 6 (Homo sapiens) (UniProt O00574)
Experiment: potency against CXCR6 with APJ panel – cell-based, beta-arrestin, DiscoveRx, uHTS hits, dose response (AID 624129)
Details: CXCR6 beta-arrestin (DiscoveRx) antagonist cell assay; for outcome: CXCR6, dose range 1; for inhibition: CXCR6, run 2, dose range 1, at 79 µM (top of the series)
[1] = CXCR6, dose range 1, mean IC50 across replicates

Sequence of C-X-C chemokine receptor type 6 (Homo sapiens) (O00574 whole entry, looked up): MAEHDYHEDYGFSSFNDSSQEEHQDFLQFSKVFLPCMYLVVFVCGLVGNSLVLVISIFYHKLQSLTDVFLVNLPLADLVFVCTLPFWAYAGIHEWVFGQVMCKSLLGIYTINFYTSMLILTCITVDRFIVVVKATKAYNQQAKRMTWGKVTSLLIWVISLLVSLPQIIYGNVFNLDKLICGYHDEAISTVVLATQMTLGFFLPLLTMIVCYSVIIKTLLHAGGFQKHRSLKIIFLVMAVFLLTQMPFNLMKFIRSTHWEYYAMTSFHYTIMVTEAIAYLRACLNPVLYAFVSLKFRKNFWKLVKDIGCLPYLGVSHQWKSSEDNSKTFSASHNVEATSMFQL

Structure (SMILES) | outcome | IC50 [1] [µM] | IC50 (CXCR6, run 1, dose range 2) [µM] | inhibition [%] | IC50 (CXCR6, run 2, dose range 2) [µM]
COc1cc(/C=C/C(O)=C/C(=O)/C=C/c2ccc(O)cc2)ccc1O | inactive | 39.4 | 40.1 | 98.4 | 38.7
CC1=C(O)C(=O)C=C2C1=CC=C1C2(C)CCC2(C)C3CC(C)(C(=O)O)CCC3(C)CCC12C (stereo not given) | inactive | 19.3 | 16.7 | 113 | 21.9
CC[N+]1(C)CCC(O)(/C=C/c2ccccc2)C(C(=O)/C=C/c2ccccc2)C1 (stereo not given) | inactive | 18.2 | 17.8 | 112 | 18.7
C=CC[C@H](CC(=O)N(CCO)Cc1ccccc1)C(=O)NC[C@H](OC(=O)[C@@H](CC=C)CC(=O)OC(C)(C)C)c1ccccc1 | inactive | 31 | 33.1 | 76.8 | 29
COC(=O)C1=C(C(=O)OC)C2OC1c1cc3ccccc3cc12 | inactive | 14.5 | 12.3 | 112 | 16.7
CC1(C)CC[C@]2(C(=O)n3ccnc3)CC[C@]3(C)[C@H](C(=O)C=C4[C@@]5(C)C=C(C#N)C(=O)C(C)(C)[C@@H]5CC[C@]43C)[C@@H]2C1 | inactive | 16.4 | 14.4 | 105 | 18.4
COC(=O)c1cc([N+](=O)[O-])c(-n2cncn2)c([N+](=O)[O-])c1 | inactive | 16.2 | 13.9 | 113 | 18.4
CC1=CC(C)(C)N2C(=O)C(=Nc3ccc(O)cc3)c3cccc1c32 | inactive | 57.9 | 77.4 | 84 | 38.4
CC1=C(C)CC2C(C1)C(=O)c1ccc(Br)cc1S2(=O)=O (stereo not given) | inactive | 30.5 | 37.3 | 50.8 | 23.7
CCn1c(=O)cc(NC2=NCC(C)CN2c2cccc(Cl)c2)n(C)c1=O (stereo not given) | inactive | 19.1 | 19.3 | 79 | 19
O=C(COC(=O)C1CCN(S(=O)(=O)c2cccs2)CC1)c1cc2ccccc2o1 | inactive | 16.8 | 16.8 | 27.4 | > 79
COc1cc(/C=C2\SC(=O)N(c3ccc(Cl)cc3)C2=O)cc([N+](=O)[O-])c1O | inactive | 20.6 | 12.8 | 88.6 | 28.4
COc1cccc(/C=C2/CCC(CN(C)C)C2=O)c1 (stereo not given) | inactive | 19.4 | 20.6 | 111 | 18.2
COc1ccc(C(=O)NC(=S)Nc2ccc([N+](=O)[O-])cc2C)cc1OC | inactive | 21.7 | 18.3 | 100 | 25.1
O=C(NCc1ccc2c(c1)OCO2)c1nc(S(=O)(=O)Cc2ccccc2F)ncc1Cl | inactive | 16.3 | 15.6 | 111 | 17
O=[N+]([O-])c1ccc(Sc2nc3ccccc3o2)c([N+](=O)[O-])c1 | inactive | 45.1 | 70.5 | 82.2 | 19.7
COc1cc(/C=C/C(=O)c2ccc(C)c([N+](=O)[O-])c2)cc(OC)c1O | inactive | 19.4 | 16.4 | 75.1 | 22.5
O=C1c2cccc3c([N+](=O)[O-])ccc(c23)C(=O)N1c1ccccn1 | inactive | 24.3 | 24.3 | 101 | 24.2
CC(=O)NS(=O)(=O)c1ccc(Nc2ccc([N+](=O)[O-])c3nonc23)cc1 | inactive | 46.6 | 35.6 | 85.9 | 57.6
COc1ccc(/C=C(/C(=O)c2cccs2)N2C=CC=CC2=C(C#N)C#N)cc1 | inactive | 19.9 | 20.3 | 109 | 19.5
COC(=O)/C=C\C(=O)Nc1cccc([N+](=O)[O-])c1 | inactive | 16.6 | 18 | 111 | 15.2
COC(=O)C1=C(C(=O)OC)SC2(S1)C(C(=O)OC)=C(C(=O)OC)Sc1c2ssc1=O | inactive | 23.2 | 20.3 | 112 | 26
Cc1ccc(C(=O)NNC(=S)NC(=O)c2ccccc2)cc1 | inactive | 20.1 | 18 | 84.4 | 22.2
CCn1nccc1C(=O)Nc1nc2ccccc2n1CCN1CCCCC1 | inactive | 20.5 | 17.2 | 84.7 | 23.7
COC(=O)c1cc(CSc2nc3ccc(C)cc3[nH]2)oc1C | inactive | 32.9 | 28.7 | 66.8 | 37.1

Further lines, results first:

outcome | IC50 [1] [µM] | IC50 (CXCR6, run 1, dose range 2) [µM] | inhibition [%] | IC50 (CXCR6, run 2, dose range 2) [µM] | Structure (SMILES)
inactive | 14.1 | 13.6 | 112 | 14.6 | COC(=O)c1ccc(/C=C(\C#N)C(=O)NC(C)c2ccccc2)cc1 (stereo not given)
inactive | 15.5 | 15.7 | 110 | 15.2 | O=C1C=CC(=O)N1CCNc1ncc(C(F)(F)F)cc1Cl
inactive | 11.9 | 11.7 | 112 | 12.2 | O=C1CC(Sc2nnnn2-c2ccccc2)C(=O)N1c1cccc(Cl)c1 (stereo not given)
inactive | 15.1 | 14.8 | 110 | 15.5 | CCOC(=O)c1cc([N+](=O)[O-])c([N+](=O)[O-])cc1NC(C)=O
inactive | 13.7 | 10.8 | 91.8 | 16.5 | Cc1ccc(O)c(C(=O)CC(=O)c2ccc(Cl)cc2)c1
inactive | 11.6 | 8.25 | 89.4 | 14.9 | Cc1cc2nc(N3C(=O)CNC3=S)sc2cc1C
inactive | 11.5 | 11.4 | 78.8 | 11.6 | CN(CC(=O)Nc1cc(S(=O)(=O)N2CCCC2)ccc1Cl)Cc1cccs1
inactive | 11.8 | 12.4 | 39.5 | 11.1 | C/C(=N\NC(=S)NCCc1ccccc1)c1ccc(Cl)cc1Cl
inactive | 11.5 | 11.6 | 109 | 11.4 | C=C1C(=O)[C@]23C[C@H]1CCC2[C@@]1(C)C(C[C@@H]3O)[C@](C)(C(=O)OC)CC[C@@H]1O (stereo not given in full)
inactive | 15.2 | 17.1 | 69.3 | 13.3 | C=C1CCN([C@@H](Cc2ccccc2)C(=O)NCCC(C)C)S(=O)(=O)c2ccccc21
inactive | 12.1 | 12.4 | 112 | 11.9 | Cn1cnc([N+](=O)[O-])c1S(=O)(=O)c1cccc(Cl)c1
inactive | 14.8 | 15.3 | 112 | 14.3 | CC(=O)Nc1ccc2c(c1)Cc1cc(N3C(=O)C=CC3=O)ccc1-2
inactive | 13.6 | 9.19 | 99.3 | 18 | CCOC(=O)c1c(-c2ccc(C)o2)csc1NC(=S)NC(=O)N(C)C
inactive | 14.2 | 12.4 | 99.6 | 15.9 | O=C(Nc1ccccc1Oc1ccccc1)[C@@H]1O[C@H](CO)[C@H](O)[C@H](O)[C@H]1O
inactive | 11.3 | 9.06 | 111 | 13.5 | O=[N+]([O-])/C=C/c1ccc2c(ccn2Cc2ccccc2)c1
inactive | 13 | 13.2 | 112 | 12.7 | CNC(=O)c1nnsc1S(=O)c1ccc(Cl)cc1 (stereo not given)
inactive | 13.9 | 14.5 | 110 | 13.3 | Cn1cnc([N+](=O)[O-])c1S(=O)(=O)c1ccc(Cl)cc1
inactive | 12.4 | 9.56 | 87.7 | 15.2 | Cc1cccc(NC(=S)N/N=C/c2ccc([N+](=O)[O-])s2)c1
inactive | 12.2 | 11.3 | 103 | 13.1 | CCCC(=O)OCCNc1cc(SCc2ccco2)c2nonc2c1[N+](=O)[O-]
inactive | 12 | 10.5 | 78.1 | 13.5 | N=C1SCC(=O)N1c1ncc(Cc2ccccc2Cl)s1
inactive | 14.3 | 11.4 | 97.6 | 17.3 | CC(Oc1ccccc1)C(=O)Nc1nc(-c2ccccn2)cs1 (stereo not given)

— PubChem BioAssay AID624129 (Sanford-Burnham Center for Chemical Genomics, 2012)
